The source of these data is patent US8618082B2, “Lupeol anti-tumor agent and uses thereof” (Wisconsin Alumni Research Foundation, priority 2004, dated 2013).

The test system of one data set is CD-1 mouse skin. Kind of data set: TPA-induced epidermal hyperplasia (hematoxylin and eosin histology). In kind it is in vivo. Here is the method:
FIG. 2. Inhibitory effect of Lupeol on TPA-induced hyperplasia in CD-1 mice: 24 and 48 h after treatment, the animals were sacrificed; skin biopsies were processed for hematoxylin and eosin staining. Representative pictures are shown.
The effect of topical application of Lupeol on TPA-mediated induction of epidermal hyperplasia was then assessed.
The animals were shaved on the dorsal side of the skin, divided into four groups and treated topically on the shaved area with either 0.4 ml vehicle (acetone), or TPA (3.2 nmol/0.4 ml acetone/animal, v/v), or Lupeol (1 or 2 mg/0.2 ml acetone/animal, w/v) followed 30 min later with TPA (3.2 nmol/0.2 ml acetone/animal). Animals were sacrificed at different times point i.e. 6, 12, 24 and 48 h post TPA treatment. The epidermis was separated from the whole skin and homogenized in 0.1 M Tris-HCl buffer (pH 7.2) using a Polytron tissue homogenizer (Brinkmann Instruments, Westbury, N.Y., USA) at 100,000×g supernatant, and microsomal fractions were prepared as described earlier (Katiyar and Mukhtar, 1997). […]
To assess the inhibitory effect of pre-application of Lupeol on TPA-induced edema, 1 cm-diameter punches of skin from vehicle-, Lupeol-, TPA- or Lupeol- and TPA-treated mice were removed, made free of fat pads, and weighed immediately. After drying for 24 h at 50° C., the skin punches were reweighed, and the loss of water content was determined. […]

Another data set relates to mouse ear. The note with it: Nikiema et al., 2001; cited from earlier work.
The subject of data set [1] is p38, Erk1/2, p21, Cyclin D-2 in AsPC-1 cells. The experiment in a line: MAP kinase phosphorylation and p21, Cyclin D-2 expression in AsPC-1 cells. In kind it is cell-based. The text has this:
FIG. 25 depicts effect of Lupeol treatment on the phosphorylation of p38 and Erk1/2 in MAP kinase signaling and p21 and Cyclin D-2 protein expression in AsPC-1 cells.

In the next data set the test system is IKKα protein. The experiment in a line: TPA-induced activation of IKKα (western blot). The note with it: highest dose of Lupeol, 12 h time point. The class given is in vivo, mouse. Here is the method:
FIG. 6. Inhibitory effect of Lupeol on TPA-induced activation of IKKα, and phosphorylation and degradation of IκBα in CD-1 mice: At different times after treatment, the animals were sacrificed, epidermal cytosolic was prepared, and protein expression was determined. Equal loading was confirmed by stripping the immunoblot and reprobing it for β-actin. The immunoblots shown here are representative of three independent experiments with similar results. The values above each lane indicate relative density of the band normalized to β-actin.
The animals were shaved on the dorsal side of the skin, divided into four groups and treated topically on the shaved area with either 0.4 ml vehicle (acetone), or TPA (3.2 nmol/0.4 ml acetone/animal, v/v), or Lupeol (1 or 2 mg/0.2 ml acetone/animal, w/v) followed 30 min later with TPA (3.2 nmol/0.2 ml acetone/animal). […]
Epidermis from the whole skin was separated as described earlier (Katiyar et al., 1999) and was homogenized in ice-cold lysis buffer [50 mM Tris-HCl, 150 mM NaCl, 1 mM EGTA, 1 mM EDTA, 20 mM NaF, 100 mM Na3VO4, 0.5% NP-40, 1% Triton X-100, 1 mM PMSF (pH 7.4)] with freshly added protease inhibitor cocktail, Protease Inhibitor Cocktail Set III (Calbiochem, La Jolla, Calif., USA). […] The protein content in the lysates was measured by DC BioRad assay (BioRad Laboratories, Hercules, Calif.) as per the manufacturer's protocol. […]
For orientation: A western blot detects proteins with antibodies after separation by electrophoresis.

The subject of data set [2] is PARP, Bax, Bcl-2 in AsPC-1 cells. The experiment in a line: PARP cleavage and Bax, Bcl-2 expression in AsPC-1 cells. In kind it is cell-based. The text has this:
FIG. 22 depicts effect of Lupeol treatment on PARP cleavage and on protein expression of Bax, Bcl-2 in AsPC-1 cells.

The subject of data set [3] is I-κBα protein and p65-subunit of NFκB in AsPC-1 cells. Kind of data set: Phosphorylation of IκBα and NFκB p65 in AsPC-1 cells. The class given is cell-based. The text has this:
FIG. 24 depicts effect of Lupeol treatment on the phosphorylation of I-κBα protein and p65-subunit of NFκB transcriptional factor in AsPC-1 cells.

Structures are written as SMILES.

On to `C=C(C)[C@@H]1CC[C@]2(C)CC[C@]3(C)[C@H](CC[C@@H]4[C@@]5(C)CC[C@H](O)C(C)(C)[C@@H]5CC[C@]43C)[C@@H]12` [Lupeol, Lup-20(29)-en-3β-ol], for which the “epidermal hyperplasia after Lupeol alone” value with CD-1 mouse skin (Lupeol alone) is “did not induce any epidermal hyperplasia”. Also, the “induction of epidermal hyperplasia by TPA” value in the data set with CD-1 mouse skin (topical Lupeol prior to TPA, 24 and 48 h) is given as “resulted in inhibition in the induction of epidermal hyperplasia”. For the same compound, the “protection against croton oil induced edema in mouse ear” value with mouse ear was “more efficacy than indomethacin”. For the same compound, in data set [1], the Cyclin-D2 protein expression result is listed as “decrease in Cyclin-D2 protein expression”, the “expression of p-21” value is “increase in the expression of p-21”, the “phosphorylation of Erk 1/2” value is reported as “increase in the phosphorylation of Erk 1/2” and the “phosphorylation of p38” value was “significant reduction”. Also, the “inhibition in TPA induced activation of IKKα protein” value in the data set with IKKα protein is reported as roughly 95%. Moreover, the “expression level of anti-apoptotic protein Bcl-2” value in data set [2] is given as “no change was observed”. Also, in data set [2] (48 hours), the Bax protein expression entry is on record as “increased Bax protein expression” and the “cleavage of PARP” value is reported as “induced cleavage of PARP”. For the same compound, in data set [3], the “phosphorylation of IkBα” value is on record as “significant reduction” and the “phosphorylation of NFkB” value is on record as “reduction in the phosphorylation of NFkB”.
